Assay results: the supplement of paper PMC10307832

Experiments:
Test in all cases: relative viability (nuclei count vs DMSO), 5 days (fraction); higher = more cells survive
[1] = compound: Cc1ccc(C(=O)Nc2cccc(C(F)(F)F)c2)cc1Nc1cncc(C(N)=O)c1 [ALW-II-49-7] + CC(=O)c1c(C)c2cnc(Nc3ccc(N4CCNCC4)cn3)nc2n(C2CCCC2)c1=O [Palbociclib] (partner 0.5 µM)
Outline: (§1)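 Relative viability equals treated-well nuclei counts divided by vehicle-well nuclei counts. Counts came from 4× images of lung cancer cell lines grown in 1536-well plates for 5 days after pin-tool dosing on the day after seeding. Dosing used one drug alone or a fixed anchor-drug dose plus five library-drug doses (not always all listed) in √10 steps, and values are medians of duplicate plates.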

XMD13-2 + AZD7762 = compound: C1CC1C(=O)NC2=NNC3=C2C=CC(=C3)C4=CC(=CC=C4)C(=O)NC5CC5 [XMD13-2] + NC(=O)Nc1cc(-c2cccc(F)c2)sc1C(=O)N[C@H]1CCCNC1 [AZD7762] (partner 0.2 µM)
Outline: as §1

ALW-II-49-7 + Dasatinib = compound: Cc1ccc(C(=O)Nc2cccc(C(F)(F)F)c2)cc1Nc1cncc(C(N)=O)c1 [ALW-II-49-7] + Cc1nc(Nc2ncc(C(=O)Nc3c(C)cccc3Cl)s2)cc(N2CCN(CCO)CC2)n1 [Dasatinib] (partner 0.075 µM)
Outline: as §1

XMD13-2 + Bortezomib = compound: C1CC1C(=O)NC2=NNC3=C2C=CC(=C3)C4=CC(=CC=C4)C(=O)NC5CC5 [XMD13-2] + CC(C)C[C@H](NC(=O)[C@H](Cc1ccccc1)NC(=O)c1cnccn1)B(O)O [Bortezomib] (partner 0.002 µM)
Outline: as §1

Cell Line | relative viability ([1]; first compound 0.08 µM) | relative viability ([1]; first compound 0.253 µM) | relative viability ([1]; first compound 0.8 µM) | relative viability ([1]; first compound 2.53 µM) | relative viability ([1]; first compound 8 µM) | relative viability (XMD13-2 + AZD7762; first compound 0.05 µM) | relative viability (XMD13-2 + AZD7762; first compound 0.1581 µM) | relative viability (XMD13-2 + AZD7762; first compound 0.5 µM) | relative viability (XMD13-2 + AZD7762; first compound 1.581 µM) | relative viability (XMD13-2 + AZD7762; first compound 5 µM) | relative viability (ALW-II-49-7 + Dasatinib; first compound 0.08 µM) | relative viability (ALW-II-49-7 + Dasatinib; first compound 0.253 µM) | relative viability (ALW-II-49-7 + Dasatinib; first compound 0.8 µM) | relative viability (ALW-II-49-7 + Dasatinib; first compound 2.53 µM) | relative viability (ALW-II-49-7 + Dasatinib; first compound 8 µM) | relative viability (XMD13-2 + Bortezomib; first compound 0.05 µM) | relative viability (XMD13-2 + Bortezomib; first compound 0.1581 µM) | relative viability (XMD13-2 + Bortezomib; first compound 0.5 µM) | relative viability (XMD13-2 + Bortezomib; first compound 1.581 µM) | relative viability (XMD13-2 + Bortezomib; first compound 5 µM)
NCI-H522 | 0.962 | 0.921 | 1.2 | 1.04 | 0.979 | 1.08 | 0.728 | 0.7 | 0.737 | 0.692 | 0.979 | 0.81 | 1.05 | 0.772 | 0.987 | – | – | – | – | –
NCI-H596 | – | – | – | – | – | 1.14 | 0.945 | 1.09 | 1.18 | 1.2 | 0.575 | 0.632 | 0.459 | 0.582 | 0.581 | 1.1 | 0.881 | 1.34 | 1.11 | 1.2
NCI-H661 | 0.384 | 0.443 | 0.39 | 0.384 | 0.404 | – | – | – | – | – | 0.782 | 1.06 | 0.965 | 0.832 | 0.767 | 0.86 | 0.805 | 0.846 | 0.626 | 0.587
NCI-H1299 | – | – | – | – | – | – | – | – | – | – | – | – | – | – | – | 1.02 | 1.05 | 1.05 | 1.05 | 1.11
NCI-H1395 | 0.583 | 0.689 | 0.691 | – | 0.495 | 0.408 | 0.404 | 0.423 | 0.38 | 0.419 | 0.436 | 0.457 | 0.407 | 0.431 | 0.417 | – | – | – | – | –
NCI-H1563 | – | – | – | – | – | – | – | – | – | – | 0.442 | 0.466 | 0.441 | 0.477 | 0.486 | 0.949 | 0.908 | 0.816 | 0.764 | 0.86
NCI-H1623 | – | – | – | – | – | – | – | – | – | – | 0.465 | 0.531 | 0.618 | 0.532 | 0.479 | – | – | – | – | –
NCI-H1648 | 0.241 | 0.251 | 0.264 | 0.246 | 0.251 | 0.604 | – | 0.564 | 0.633 | 0.565 | – | – | – | – | – | – | – | – | – | –
NCI-H1650 | 0.328 | 0.314 | 0.338 | 0.397 | 0.41 | – | – | – | – | – | 0.273 | 0.306 | 0.323 | 0.282 | 0.341 | 0.22 | 0.201 | 0.198 | 0.195 | 0.191
NCI-H1703 | – | – | – | – | – | 0.124 | 0.131 | 0.125 | – | 0.116 | – | – | – | – | – | 0.47 | 0.597 | 0.407 | 0.228 | 0.195
NCI-H1793 | 0.323 | 0.278 | 0.29 | 0.291 | 0.33 | 0.707 | 0.662 | 0.468 | 0.524 | 0.72 | 0.398 | 0.387 | 0.296 | 0.348 | 0.406 | – | – | – | – | –
NCI-H1944 | 0.353 | 0.32 | 0.327 | 0.346 | 0.351 | 0.555 | 0.473 | 0.488 | 0.75 | 0.551 | 0.206 | 0.237 | 0.232 | 0.228 | 0.227 | – | – | – | – | –
NCI-H2009 | 0.211 | 0.264 | 0.242 | 0.203 | 0.199 | – | – | – | – | – | 0.284 | 0.29 | 0.289 | 0.264 | 0.252 | 1.05 | 1.12 | 1.4 | 1.02 | 1.01
NCI-H2023 | 0.325 | 0.344 | 0.36 | 0.4 | 0.428 | – | – | – | – | – | 0.547 | 0.547 | 0.603 | 0.573 | 0.437 | 1.16 | 0.928 | 1.06 | 0.986 | 0.983
NCI-H2170 | 0.367 | 0.451 | 0.381 | 0.403 | 0.364 | 0.957 | 1 | 1 | 0.884 | 0.859 | 0.725 | 0.531 | 0.608 | 0.512 | 0.614 | – | – | – | – | –
NCI-H2228 | 0.602 | 0.416 | 0.645 | 0.812 | 0.596 | – | – | – | – | – | 0.57 | 0.391 | 0.509 | 0.538 | 0.455 | 1.48 | 1.16 | 1 | 1 | 0.872
NCI-H2342 | 0.496 | 0.541 | 0.515 | 0.499 | 0.488 | 0.494 | 0.566 | 0.516 | 0.455 | 0.598 | 0.303 | 0.299 | 0.327 | 0.3 | 0.314 | – | – | – | – | –
SK-LU-1 | 0.332 | 0.35 | 0.337 | 0.26 | 0.323 | – | – | – | – | – | 0.17 | 0.207 | 0.206 | 0.175 | 0.197 | 1.26 | 1.41 | 1.1 | 0.764 | 1.15
SK-MES-1 | 0.344 | 0.314 | 0.284 | 0.315 | 0.22 | – | – | – | – | – | 0.353 | 0.351 | 0.296 | 0.33 | 0.222 | – | – | – | – | –
SW 900 | 0.475 | 0.577 | – | 0.573 | 0.658 | 0.741 | 0.587 | 0.679 | 0.467 | 0.835 | 0.607 | 0.565 | 0.559 | 0.565 | 0.478 | – | – | – | – | –
SW 1573 | 0.347 | 0.489 | 0.373 | 0.347 | 0.319 | – | – | – | – | – | 0.473 | 0.399 | 0.568 | 0.514 | 0.304 | 0.974 | 1.03 | 1.03 | 0.977 | 0.947
